Some test systems named below: PC-3; MCF7; 786-0; SR; RXF 393; HCT-15; HT-29; A549; SF-295; Malme-3M; NCI-H460; A498; ACHN; OVCAR-3; U-251; UACC-62; MDA-MB-435; SK-MEL-28; SK-OV-3; CCRF-CEM.
What all share (test): growth of human tumour cells (NCI), 48 h

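Where inhibition never reached the appropriate level, the endpoint shown equals the highest concentration tested. Otherwise, values were interpolated linearly from a five-concentration, 48-hour dose response in 96-well plates. At the GI50, growth is halved.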 Activity calls are given as the source filed them. Cut-off read from the data, not from the text of the source: active = GI50 up to about 1.1 µM and inactive = higher.

The values that follow come from ChEMBL document CHEMBL1201862, “PubChem BioAssay data set” (2004).

Turning to `CN(C)CCCN1c2ccccc2CCc2cc([N+](=O)[O-])ccc21`, the GI50 is 25.4 µM (inactive) in the assay with PC-3; 27.3 µM (inactive) in the assay with MCF7; 24.5 µM (inactive) with 786-0; 32.1 µM (inactive) with SR; 14.2 µM (inactive) in the assay with RXF 393; 34.4 µM in the assay with HCT-15. The GI50 with HT-29 was 21.4 µM (inactive); in the assay with A549, 24.6 µM (inactive); with SF-295, 18.9 µM (inactive); in the assay with Malme-3M it was 18.8 µM (inactive); in the assay on NCI-H460, 20 µM (inactive); with A498, 25.5 µM (inactive). Besides, the GI50 in the assay with ACHN was 29.4 µM (inactive); in the assay on OVCAR-3 it was 20 µM (inactive); in the assay with U-251, 26.3 µM (inactive); with UACC-62 it was 14.5 µM (inactive); in the assay with MDA-MB-435, 21.6 µM (inactive).
In the case of `CC(C)(CC(O)C#N)/[N+]([O-])=[N+](\[O-])C(C)(C)CC(O)C#N` (stereo not given), the GI50 in the assay on PC-3 is 28.2 µM (inactive); in the assay with MCF7, 20.7 µM (inactive); in the assay with 786-0 it was 18.2 µM (inactive); in the assay with SR, 15.2 µM (inactive); in the assay on RXF 393, 15.9 µM (inactive); in the assay with HCT-15, 15.2 µM. Besides, the GI50 in the assay with HT-29 was 28.4 µM (inactive); with A549, 57.4 µM (inactive); with SF-295, 35.7 µM (inactive); with Malme-3M, 21.6 µM (inactive); in the assay with NCI-H460, 36.1 µM (inactive); with A498 it was > 100 µM (inactive). For the same compound, the GI50 with ACHN is 23.2 µM (inactive); with OVCAR-3, 22.5 µM (inactive); with SK-MEL-28 it was 26.6 µM (inactive); with U-251 it was 26.5 µM (inactive); in the assay with UACC-62 it was 16 µM (inactive); in the assay on SK-OV-3 it was 29.8 µM (inactive). The GI50 with MDA-MB-435 is 32.9 µM (inactive).
As to `NC1=NC2(COC(c3ccccc3)(c3ccccc3)c3ccccc3)OC(COC(c3ccccc3)(c3ccccc3)c3ccccc3)C(O)C2O1` (stereo not given), the GI50 in the assay with PC-3 was 11.2 µM (inactive); in the assay on MCF7, > 100 µM (inactive); in the assay with 786-0 it was > 100 µM (inactive); with SR it was 32.9 µM (inactive); with RXF 393, 66.5 µM (inactive); in the assay on HCT-15 it was above 100 µM. In addition, the GI50 in the assay with HT-29 is 65 µM (inactive); in the assay on A549, 25.1 µM (inactive); in the assay on SF-295, 46.5 µM (inactive); in the assay with Malme-3M, 18.4 µM (inactive); in the assay with A498, > 100 µM (inactive); in the assay with CCRF-CEM, 21.3 µM (inactive). Moreover, the GI50 with ACHN is 88.3 µM (inactive); in the assay on OVCAR-3 it was > 100 µM (inactive); in the assay with SK-MEL-28, > 100 µM (inactive); in the assay on U-251, > 100 µM (inactive); with UACC-62, 27.6 µM (inactive); with SK-OV-3, > 100 µM (inactive). In addition, the GI50 with MDA-MB-435 was 65.8 µM (inactive).
`c1csc(-c2cc(-c3ccsc3)cs2)c1`: the GI50 in the assay with PC-3 is > 100 µM (inactive); in the assay with MCF7, 34.8 µM (inactive); in the assay on 786-0, 44.2 µM (inactive); in the assay with SR, 14.4 µM (inactive); in the assay on RXF 393, 20.6 µM (inactive); in the assay on HCT-15, above 100 µM. Besides, the GI50 in the assay with HT-29 was 41.4 µM (inactive); with A549 it was 44.8 µM (inactive); in the assay on SF-295, 32.1 µM (inactive); in the assay on NCI-H460 it was > 100 µM (inactive); in the assay on A498, > 100 µM (inactive); in the assay with CCRF-CEM, > 100 µM (inactive). Moreover, the GI50 is > 100 µM (inactive) in the assay on ACHN; 27.2 µM (inactive) in the assay with OVCAR-3; > 100 µM (inactive) in the assay on SK-MEL-28; > 100 µM (inactive) in the assay on U-251; > 100 µM (inactive) with UACC-62; 33.8 µM (inactive) in the assay with SK-OV-3. For the same compound, the GI50 with MDA-MB-435 was > 100 µM (inactive).
`CSc1nc(=O)c2nc(-c3cccs3)c(-c3cccs3)nc2n1C`: the GI50 was 40.9 µM (inactive) with PC-3; 24 µM (inactive) with MCF7; 30.2 µM (inactive) in the assay on 786-0; > 100 µM (inactive) with SR; 18.7 µM (inactive) with RXF 393; above 100 µM in the assay with HCT-15. The GI50 in the assay on HT-29 is > 100 µM (inactive); with A549 it was 44.8 µM (inactive); in the assay with SF-295 it was 32.7 µM (inactive); in the assay on Malme-3M, 50.9 µM (inactive); in the assay on NCI-H460, > 100 µM (inactive); in the assay on A498, 32.3 µM (inactive). The GI50 in the assay with CCRF-CEM is > 100 µM (inactive); with ACHN, 37.7 µM (inactive); with SK-MEL-28 it was 43.1 µM (inactive); in the assay with U-251, 28.2 µM (inactive); with UACC-62 it was 41.7 µM (inactive); with SK-OV-3 it was 26.8 µM (inactive). Further, the GI50 with MDA-MB-435 was > 100 µM (inactive).
Take `OC[C@H](O)[C@@H](OCc1ccccc1)[C@H](NCc1ccccc1)c1cccs1`: the GI50 with PC-3 was 98.4 µM (inactive); with MCF7, > 100 µM (inactive); with 786-0 it was > 100 µM (inactive); with SR, > 100 µM (inactive); with HCT-15, above 100 µM; in the assay on HT-29 it was 60 µM (inactive). In addition, the GI50 in the assay with A549 was > 100 µM (inactive); in the assay on SF-295, > 100 µM (inactive); in the assay on Malme-3M, > 100 µM (inactive); in the assay on NCI-H460, 85.7 µM (inactive); in the assay with A498, > 100 µM (inactive); in the assay with CCRF-CEM, > 100 µM (inactive). In addition, the GI50 with ACHN, in the assay on OVCAR-3, in the assay on SK-MEL-28, in the assay on U-251, with UACC-62 and with SK-OV-3 was > 100 µM (inactive) each time. Also, in the assay with MDA-MB-435, the GI50 was > 100 µM (inactive).
In the case of `C=CCSC1=N/C(=C\c2cccs2)C(=O)N1CC=C`, the GI50 in the assay on PC-3 is 33.7 µM (inactive); with MCF7, 27.3 µM (inactive); in the assay with 786-0 it was 45.4 µM (inactive); in the assay on SR it was 32.5 µM (inactive); with RXF 393, 16.7 µM (inactive); with HCT-15, 66.1 µM. The GI50 was 32.8 µM (inactive) in the assay with HT-29; 33.7 µM (inactive) in the assay on A549; 81.5 µM (inactive) in the assay on SF-295; > 100 µM (inactive) in the assay on Malme-3M; 61.9 µM (inactive) in the assay on NCI-H460; 26.4 µM (inactive) with A498. The GI50 in the assay with ACHN is 54.6 µM (inactive); in the assay on OVCAR-3, > 100 µM (inactive); in the assay on SK-MEL-28, > 100 µM (inactive); with U-251, 61.5 µM (inactive); with UACC-62, 63.2 µM (inactive); with SK-OV-3, > 100 µM (inactive). In addition, in the assay with MDA-MB-435, the GI50 is 60.3 µM (inactive).
For `CC(C)Nc1[nH]c(C(=O)c2ccccc2)c(N)c1C(=S)Nc1ccccc1`, the GI50 is > 100 µM (inactive) in the assay with PC-3; 40.4 µM (inactive) in the assay on MCF7; 36.5 µM (inactive) with 786-0; 43.5 µM (inactive) with SR; 32.8 µM in the assay with HCT-15; 27.9 µM (inactive) in the assay on HT-29. In addition, the GI50 in the assay on A549 is 90.6 µM (inactive); in the assay on SF-295 it was > 100 µM (inactive); with Malme-3M, 19.3 µM (inactive); with NCI-H460, 57 µM (inactive); with A498, 77.6 µM (inactive); in the assay on CCRF-CEM, > 100 µM (inactive). Besides, the GI50 in the assay on ACHN was 63.1 µM (inactive); in the assay on OVCAR-3 it was > 100 µM (inactive); in the assay with SK-MEL-28 it was 17.4 µM (inactive); in the assay with U-251, 43.2 µM (inactive); in the assay with UACC-62, 16.9 µM (inactive); in the assay with SK-OV-3, > 100 µM (inactive). The GI50 with MDA-MB-435 was 30.8 µM (inactive).
With `CC[C@H]1C=CCC[C@@]2(C[C@@H]3CC[C@@H]4[C@H](C(=O)OCCCCCCCCCCCCCCCC(=O)N(CCCN)C[C@@H](O)CCN)[C@]5(CCC[C@@H](C)O5)NC(=[N+]34)N2)O1`, the GI50 is 0.385 µM (active) with PC-3; 0.46 µM (active) in the assay on MCF7; 0.143 µM (active) with 786-0; 0.0802 µM (active) in the assay with SR; 0.439 µM (active) with RXF 393; 0.41 µM in the assay on HCT-15. Also, the GI50 with HT-29 is 0.299 µM (active); in the assay on A549 it was 0.282 µM (active); in the assay with SF-295, 0.518 µM (active); with Malme-3M it was 0.245 µM (active); in the assay on NCI-H460 it was 0.443 µM (active); with A498, 0.625 µM (active). For the same compound, the GI50 with ACHN was 0.349 µM (active); in the assay on OVCAR-3, 0.887 µM (active); in the assay on SK-MEL-28 it was 1.27 µM (inactive); in the assay on U-251, 0.381 µM (active); with UACC-62 it was 0.0678 µM (active); with SK-OV-3 it was 2.05 µM (inactive). In addition, in the assay with MDA-MB-435, the GI50 was 0.0524 µM (active).
For `COC(C)(C)/C=C/c1[nH]c2ccccc2c1CC(=O)NCCc1cn(C(c2ccccc2)(c2ccccc2)c2ccccc2)cn1`, the GI50 with PC-3 was 3.44 µM (inactive); in the assay on MCF7, 3.66 µM (inactive); in the assay on 786-0 it was 4.72 µM (inactive); with SR, 2.23 µM (inactive); in the assay on RXF 393, 7.16 µM (inactive); with HCT-15 it was 4.25 µM. For the same compound, the GI50 was 2.71 µM (inactive) with HT-29; 3.71 µM (inactive) in the assay on A549; 4.7 µM (inactive) with SF-295; 3.76 µM (inactive) in the assay with Malme-3M; 2.62 µM (inactive) in the assay on NCI-H460; 3.25 µM (inactive) with A498. Moreover, the GI50 was 3.68 µM (inactive) in the assay with CCRF-CEM; 4.53 µM (inactive) in the assay on ACHN; 4.92 µM (inactive) with OVCAR-3; 9.77 µM (inactive) with SK-MEL-28; 4.45 µM (inactive) with U-251; 6.44 µM (inactive) in the assay with UACC-62. Moreover, in the assay with MDA-MB-435, the GI50 was 3.62 µM (inactive).
With `CC1=CCC[C@H]2[C@](C)(CC3=CC(=O)C4SCCSC4C3=O)[C@@H](C)CC[C@]12C` (stereo not given in full), the GI50 with PC-3 was 13.5 µM (inactive); in the assay with MCF7, 20.5 µM (inactive); in the assay with 786-0, 18.5 µM (inactive); in the assay on SR, 11.1 µM (inactive); in the assay on RXF 393, 18.6 µM (inactive); in the assay with HCT-15 it was 23.3 µM. Also, the GI50 in the assay on A549 is 17.2 µM (inactive); in the assay on SF-295, 10.9 µM (inactive); in the assay on NCI-H460 it was 20 µM (inactive); with A498 it was 16.1 µM (inactive); with CCRF-CEM it was 11 µM (inactive); with ACHN it was 18.2 µM (inactive). The GI50 in the assay with OVCAR-3 was 18.5 µM (inactive); in the assay with SK-MEL-28 it was 18 µM (inactive); in the assay with U-251, 14.5 µM (inactive); in the assay with UACC-62, 14.8 µM (inactive); in the assay on MDA-MB-435 it was 8.09 µM (inactive).
